Experimental data published in patent US20250179103A1, “6-OXODECAHYDROPYRROLO[1,2-A][1,5]DIAZOCINE AND 6-OXODECAHYDRO-4H-PYRROLO[2,1-D][1,5]THIAZOCINE DERIVATIVES AS STAT3 AND STAT6 MODULATORS FOR THE TREATMENT OF CANCER AND INFLAMMATORY CONDITIONS” (Recludix Pharma, Inc., priority 2022, published 2025).

Columns and labels:
[1] = target: T1, Recombinant STAT6 protein (STAT6(W123-T658)) (Homo sapiens, UniProt P42226); assay: STAT6 Fluorescence Polarization (FP) Assay; type: binding; conditions: STAT6(W123-T658) 250 nM, probe 5-FAM-ApYKPFQDLI-NH2 2 nM, 45-minute incubation
T1 construct: Recombinant STAT6 protein (STAT6(W123-T658))
T1 sequence (P42226 123-658): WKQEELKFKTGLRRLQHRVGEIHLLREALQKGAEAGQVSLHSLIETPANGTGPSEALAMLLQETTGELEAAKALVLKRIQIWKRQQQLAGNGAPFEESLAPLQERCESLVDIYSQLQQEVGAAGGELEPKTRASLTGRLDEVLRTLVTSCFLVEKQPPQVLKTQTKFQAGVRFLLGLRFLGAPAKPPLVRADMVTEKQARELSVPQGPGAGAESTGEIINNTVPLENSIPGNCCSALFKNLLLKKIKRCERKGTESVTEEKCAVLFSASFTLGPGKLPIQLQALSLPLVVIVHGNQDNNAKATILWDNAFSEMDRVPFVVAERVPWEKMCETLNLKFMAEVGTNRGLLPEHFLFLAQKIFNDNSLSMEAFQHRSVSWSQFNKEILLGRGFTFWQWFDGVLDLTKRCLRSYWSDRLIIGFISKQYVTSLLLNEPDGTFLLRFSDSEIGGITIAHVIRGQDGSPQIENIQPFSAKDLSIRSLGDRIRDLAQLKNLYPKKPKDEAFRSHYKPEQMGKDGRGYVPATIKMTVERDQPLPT
Outline: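 Displacement of a fluorescent phosphotyrosine peptide (5-FAM-ApYKPFQDLI-NH2, 2 nM) from STAT6(W123-T658) (250 nM), 1% DMSO, pH 7.4 HEPES buffer. After 45 min at room temperature, polarization (mP) was plotted versus log compound concentration and fitted by nonlinear regression to give IC50.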

[2] = target: T2, Recombinant STAT3 protein (STAT3(G127-I722)) (Homo sapiens, UniProt P40763); assay: STAT3 Fluorescence Polarization (FP) Assay; type: binding; conditions: STAT3(G127-I722) 25 nM, probe 5-FAM-GpYLPQTV-NH2 2 nM, 45-minute incubation
T2 construct: Recombinant STAT3 protein (STAT3(G127-I722))
Outline: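 Fluorescence polarization after a 45-min room-temperature incubation measured compound displacement of a 2 nM fluorescein-labelled phosphotyrosine peptide (5-FAM-GpYLPQTV-NH2) from 25 nM recombinant STAT3(G127-I722). Buffer was 10 mM HEPES pH 7.4 with 1% DMSO final. IC50s were fitted by nonlinear regression of mP against log concentration.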

T2 sequence (P40763 127-722): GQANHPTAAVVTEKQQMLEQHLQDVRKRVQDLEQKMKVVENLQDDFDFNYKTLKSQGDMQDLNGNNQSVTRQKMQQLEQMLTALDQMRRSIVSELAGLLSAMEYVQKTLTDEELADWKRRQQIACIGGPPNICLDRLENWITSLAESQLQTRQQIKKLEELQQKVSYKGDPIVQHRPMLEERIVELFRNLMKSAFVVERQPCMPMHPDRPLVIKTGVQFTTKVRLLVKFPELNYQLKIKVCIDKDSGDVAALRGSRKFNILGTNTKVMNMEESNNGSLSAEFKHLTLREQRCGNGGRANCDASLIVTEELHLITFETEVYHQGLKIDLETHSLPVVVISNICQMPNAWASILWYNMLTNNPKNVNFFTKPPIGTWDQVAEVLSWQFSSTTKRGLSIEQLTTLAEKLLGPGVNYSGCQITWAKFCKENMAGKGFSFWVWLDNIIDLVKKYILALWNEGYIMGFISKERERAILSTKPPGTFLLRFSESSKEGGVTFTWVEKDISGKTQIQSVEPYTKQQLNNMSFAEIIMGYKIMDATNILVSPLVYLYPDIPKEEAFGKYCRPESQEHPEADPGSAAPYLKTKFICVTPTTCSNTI

SMILES	IC50 [1]	IC50 [2]
CC(=O)N1C[C@H](NC(=O)[C@@H]2CC[C@@H]3CCN(Cc4ncccn4)C[C@H](NC(=O)c4cc5cc(C(F)P(=O)(O)O)ccc5s4)C(=O)N32)[C@@H](F)C1 (stereo partly drawn) [Compound 400, ((2-(((5S,8S,10aR)-8-(((3S,4S)-1-acetyl-4-fluoropyrrolidin-3-yl)carbamoyl)-6-oxo-3-(pyrimidin-2-ylmethyl)decahydropyrrolo[1,2-a][1,5]diazocin-5-yl)carbamoyl)benzo[b]thiophen-5-yl)fluoromethyl)phosphonic acid]	3 to 30 µM	0.1 to 1 µM
CN(C)C(=O)[C@@H]1CC[C@@H]2CCN(c3ccccc3)C[C@H](NC(=O)c3cc4cc(C(F)(F)P(=O)(O)O)ccc4[nH]3)C(=O)N21 [Compound 223, ((2-(((5S,8S,10aR)-8-(dimethylcarbamoyl)-6-oxo-3-phenyldecahydropyrrolo[1,2-a][1,5]diazocin-5-yl)carbamoyl)-1H-indol-5-yl)difluoromethyl)phosphonic acid]	0.3 to 3 µM	1 to 10 µM
CC(=O)N1CC[C@H]2CC[C@@H](C(=O)Nc3ccc(-c4ccccc4)cc3)N2C(=O)[C@@H](NC(=O)/C=C/c2ccc(C(F)(F)P(=O)(O)O)cc2)C1 [Compound 121, ((4-((E)-3-(((5S,8S,10aR)-8-([1,1′-biphenyl]-4-ylcarbamoyl)-3-acetyl-6-oxodecahydropyrrolo[1,2-a][1,5]diazocin-5-yl)amino)-3-oxoprop-1-en-1-yl)phenyl)difluoromethyl)phosphonic acid]	3 to 30 µM	> 10 µM
N#C[C@@H]1CN(C(=O)[C@@H]2CC[C@@H]3CCS(=O)(=O)C[C@H](NC(=O)c4cc5cc(C(F)(F)P(=O)(O)O)ccc5s4)C(=O)N32)C[C@H]1c1ccccc1 (single isomer, unassigned) [Compound 8]	≤ 0.3 µM	0.1 to 1 µM
CC(=O)N1CC[C@H]2CC[C@@H](C(=O)N(C)c3ccccc3)N2C(=O)[C@@H](NC(=O)c2ccc3ccc(C(F)P(=O)(O)O)cc3c2)C1 (stereo partly drawn) [Compound 14, ((7-(((5S,8S,10aR)-3-acetyl-8-(methyl(phenyl)carbamoyl)-6-oxodecahydropyrrolo[1,2-a][1,5]diazocin-5-yl)carbamoyl)naphthalen-2-yl)fluoromethyl)phosphonic acid]	0.3 to 3 µM	> 10 µM
CC(=O)N1CC[C@H]2CC[C@@H](C(=O)N(C)c3ccc(OC(F)(F)F)cc3)N2C(=O)[C@@H](NC(=O)c2cc3cc(C(F)(F)P(=O)(O)O)ccc3[nH]2)C1 [Compound 135, ((2-(((5S,8S,10aR)-3-acetyl-8-(methyl(4-(trifluoromethoxy)phenyl)carbamoyl)-6-oxodecahydropyrrolo[1,2-a][1,5]diazocin-5-yl)carbamoyl)-1H-indol-5-yl)difluoromethyl)phosphonic acid]	0.3 to 3 µM	1 to 10 µM
Cc1ccc2onc(C(=O)N3CC[C@H]4CC[C@@H](C(=O)N5C[C@H](c6ccn(C)c(=O)c6)CC56CC6)N4C(=O)[C@@H](NC(=O)c4ccc5ccc(C(F)(F)P(=O)(O)O)cc5c4)C3)c2c1 [Compound 382, (difluoro(7-(((5S,8S, 10aR)-8-((S)-6-(1-methyl-2-oxo-1,2-dihydropyridin-4-yl)-4-azaspiro[2.4]heptane-4-carbonyl)-3-(5-methylbenzo[d]isoxazole-3-carbonyl)-6-oxodecahydropyrrolo [1,2-a][1,5]diazocin-5-yl)carbamoyl)naphthalen-2-yl)methyl)phosphonic acid]	≤ 0.3 µM	1 to 10 µM
CC(=O)N1CC[C@H]2CC[C@@H](C(=O)N3CC(c4cc[nH]c(=O)c4)[C@@H](C#N)C3)N2C(=O)[C@@H](NC(=O)c2cc3cc(C(F)(F)P(=O)(O)O)ccc3s2)C1 (relative stereo) [Compound 145, ((2-(((5S,8S,10aR)-3-acetyl-8-((rel-trans)-3-cyano-4-(2-oxo-1,2-dihydropyridin-4-yl)pyrrolidine-1-carbonyl)-6-oxodecahydropyrrolo[1,2-a][1,5]diazocin-5-yl)carbamoyl)benzo[b]thiophen-5-yl)difluoromethyl)phosphonic acid]	≤ 0.3 µM	0.1 to 1 µM
CC(=O)N1CC[C@H]2CC[C@@H](C(=O)N(C)c3ccccc3)N2C(=O)[C@@H](NC(=O)c2ccc3cc(P(=O)(O)O)ccc3c2)C1 [Compound 113, (6-(((5S,8S,10aR)-3-acetyl-8-(methyl(phenyl)carbamoyl)-6-oxodecahydropyrrolo[1,2-a][1,5]diazocin-5-yl)carbamoyl)naphthalen-2-yl)phosphonic acid]	> 30 µM	> 10 µM
CC(=O)N1CC[C@H]2CC[C@@H](C(=O)Nc3ccc(OCCN(C)C)cc3)N2C(=O)[C@@H](NC(=O)c2cc3cc(C(F)(F)P(=O)(O)O)ccc3s2)C1 [Compound 75, ((2-(((5S,8S,10aR)-3-acetyl-8-((4-(2-(dimethylamino)ethoxy)phenyl)carbamoyl)-6-oxodecahydropyrrolo[1,2-a][1,5]diazocin-5-yl)carbamoyl)benzo[b]thiophen-5-yl)difluoromethyl)phosphonic acid]	3 to 30 µM	1 to 10 µM
CC(=O)N1CC[C@H]2CC[C@@H](C(=O)Nc3ccc(-c4ccccc4)cc3)N2C(=O)[C@@H](NC(=O)c2cc3c(F)c(C(F)(F)P(=O)(O)O)ccc3s2)C1 [Compound 48, ((2-(((5S,8S,10aR)-8-([1,1′-biphenyl]-4-ylcarbamoyl)-3-acetyl-6-oxodecahydropyrrolo[1,2-a][1,5]diazocin-5-yl)carbamoyl)-4-fluorobeno[b]thiophen-5-yl)difluoromethyl)phosphonic acid]	0.3 to 3 µM	0.1 to 1 µM
CC(=O)N1CC[C@H]2CC[C@@H](C(=O)N(C)c3cccc(C(F)F)c3)N2C(=O)[C@@H](NC(=O)c2cc3cc(C(F)(F)P(=O)(O)O)ccc3s2)C1 [Compound 201, ((2-(((5S,8S,10aR)-3-acetyl-8-((3-(difluoromethyl)phenyl)(methyl)carbamoyl)-6-oxodecahydropyrrolo[1,2-a][1,5]diazocin-5-yl)carbamoyl)benzo[b]thiophen-5-yl)difluoromethyl)phosphonic acid]	0.3 to 3 µM	1 to 10 µM
CC(=O)N1CC[C@H]2CC[C@@H](C(=O)N3C[C@H](C(N)=O)[C@@H](c4ccccc4)C3)N2C(=O)[C@@H](NC(=O)c2cc3cc(C(F)(F)P(=O)(O)O)ccc3s2)C1 (single isomer, unassigned) [Compound 59, ((2-(((5S,8S,10aR)-3-acetyl-8-((3R,4S or 3S,4R)-3-carbamoyl-4-phenylpyrrolidine-1-carbonyl)-6-oxodecahydropyrrolo[1,2-a][1,5]diazocin-5-yl)carbamoyl)benzo[b]thiophen-5-yl)difluoromethyl)phosphonic acid]	≤ 0.3 µM	1 to 10 µM
CC(=O)N1CC[C@H]2CC[C@@H](C(=O)N(C)c3ccccc3)N2C(=O)[C@@H](NC(=O)c2cc3cc(C(C#N)P(=O)(O)O)ccc3s2)C1 (stereo partly drawn) [Compound 16, ((2-(((5S,8S,10aR)-3-acetyl-8-(methyl(phenyl)carbamoyl)-6-oxodecahydropyrrolo[1,2-a][1,5]diazocin-5-yl)carbamoyl)benzo[b]thiophen-5-yl)(cyano)methyl)phosphonic acid]	> 30 µM	> 10 µM
Cc1ccc2cc(C(=O)N3CC[C@H]4CC[C@@H](C(=O)N5CCOCC5)N4C(=O)[C@@H](NC(=O)c4ccc5ccc(C(F)P(=O)(O)O)cc5c4)C3)cc(Cl)c2n1 (stereo partly drawn) [Compound 366, ((7-(((5S,8S,10aR)-3-(8-chloro-2-methyl-quinoline-6-carbonyl)-8-(morpholine-4-carbonyl)-6-oxodecahydropyrrolo [1,2-a][1,5]diazocin-5-yl)carbamoyl)naphthalen-2-yl)fluoromethyl) phosphonic acid]	0.3 to 3 µM	> 10 µM
CC(=O)N1CC[C@H]2CC[C@@H](C(=O)N3CCCC[C@H]3Cc3ccccc3)N2C(=O)[C@@H](NC(=O)c2cc3cc(C(F)(F)P(=O)(O)O)ccc3[nH]2)C1 [Compound 106, ((2-(((5S,8S,10aR)-3-acetyl-8-((S)-2-benzylpiperidine-1-carbonyl)-6-oxodecahydropyrrolo[1,2-a][1,5]diazocin-5-yl)carbamoyl)-1H-indol-5-yl)difluoromethyl)phosphonic acid]	0.3 to 3 µM	1 to 10 µM
CC(=O)N1CC[C@H]2CC[C@@H](C(=O)Nc3ccc4nnccc4c3)N2C(=O)[C@@H](NC(=O)c2ccc3ccc(C(F)(F)P(=O)(O)O)cc3c2)C1 [Compound 199, ((7-(((5S,8S,10aR)-3-acetyl-8-(cinnolin-6-ylcarbamoyl)-6-oxodecahydropyrrolo[1,2-a][1,5]diazocin-5-yl)carbamoyl)naphthalen-2-yl)difluoromethyl)phosphonic acid]	0.3 to 3 µM	1 to 10 µM
